“Also recorded” adds a separate entry of the source. Residues, ends and D or L forms follow the SMILES beside them.
Tests used:
[1] = test system: BAEC; assay: MPO-mediated BAEC injury (cell morphology); assay type: cell-based, bovine; settings: MPO 2.5 μg/ml, H2O2 50 μM
Experimental: MPO-mediated BAEC Injury: BAEC (passage 6-8) were cultured in 24 well plates in DMEM containing 10% FBS until 70-80% confluent. The cells were washed with Hank's balanced salt solution (HBSS) 3 times and incubated with MPO (2.5 μg/mL) and H2O2±KYC at the concentrations indicated in HBSS for 30 min. Finally, BAEC were examined visually and images captured for permanent record using a Nikon Eclipse microscope (Model TS 100) fitted with a Nikon Digital Sight DS-U2 camera and NIS-Elements F 3.0 imaging software. Images are representative of 3 independent experiments.
KYC protects BAEC from MPO-induced injury. […] BAEC in 96 well were treated with 100 μl of HBSS containing MPO (2.5 μg/ml) and H2O2 (50 μM) for 20 min with or without KYC. Changes in cell morphology were recorded as described in a previous report by others.

[2] = target: T1, MPO (Homo sapiens, UniProt P05164); assay: MPO-catalyzed HOCl production (taurine/TMB assay); assay type: biochemical; design: purchased Lee Biosolutions (St. Louis, Mo.)
T1 sequence (P05164 49-745): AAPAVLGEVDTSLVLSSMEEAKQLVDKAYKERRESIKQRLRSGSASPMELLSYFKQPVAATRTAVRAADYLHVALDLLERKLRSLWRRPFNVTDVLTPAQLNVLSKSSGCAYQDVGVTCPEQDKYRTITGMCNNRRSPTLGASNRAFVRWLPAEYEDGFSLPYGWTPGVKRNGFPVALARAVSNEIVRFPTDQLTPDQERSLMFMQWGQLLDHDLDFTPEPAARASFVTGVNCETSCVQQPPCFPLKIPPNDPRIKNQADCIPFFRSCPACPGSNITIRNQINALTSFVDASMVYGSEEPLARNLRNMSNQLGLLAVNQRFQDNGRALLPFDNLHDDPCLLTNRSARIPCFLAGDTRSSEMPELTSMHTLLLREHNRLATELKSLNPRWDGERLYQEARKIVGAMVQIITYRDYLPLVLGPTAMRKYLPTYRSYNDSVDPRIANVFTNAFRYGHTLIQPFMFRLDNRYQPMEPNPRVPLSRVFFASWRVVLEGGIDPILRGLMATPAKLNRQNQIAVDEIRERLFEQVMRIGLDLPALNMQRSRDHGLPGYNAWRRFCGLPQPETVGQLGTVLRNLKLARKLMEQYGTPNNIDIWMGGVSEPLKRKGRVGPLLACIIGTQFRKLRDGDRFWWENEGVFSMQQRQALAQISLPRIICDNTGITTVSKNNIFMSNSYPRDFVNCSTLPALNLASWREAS
Experimental: MPO-mediated HOCl Production. MPO (20 nM) was incubated with H2O2 (50 μM), NaCl (150 mM), taurine (5 mM) and increasing concentrations of KYC in phosphate buffer (100 mM, pH 7.4) which also contained diethylene triamine pentaacetic acid (DTPA, 100 μM) to prevent non-specific, divalent metal cation oxidation for 30 min. Reactions were halted by addition of catalase. Chlorotaurine was quantified using the 3,3-,5,5-tetramethylbenzidine (TMB) assay. Briefly, 400 μL of reaction solution was mixed with 100 μL of 2 mM TMB, 100 μM NaI containing 10% dimethylformamide (DMF) in 400 mM acetate buffer (pH 5.4). After 5 min, absorbance (650 nm) was recorded on a UV/Vis spectrophotometer (Agilent Model 8453).
MPO-catalyzed HOCl Production: MPO (20 nM) was incubated with H2O2 (50 μM), NaCl (150 mM), taurine (5 mM) and increasing concentrations of KYC in a phosphate buffer (100 mM, pH 7.4) containing diethylene triamine pentaacetic acid (DTPA, 100 μM) to prevent non-specific, divalent metal cation oxidation for 30 min. Reactions were halted by addition of catalase (2,000 units/mL). Chlorotaurine was quantified using the TMB assay (66). Briefly, 400 μL of reaction solution was mixed with 100 μL of 2 mM TMB, 100 μM NaI containing 10% dimethylformamide (DMF) in 400 mM acetate buffer (pH 5.4). After 5 min, absorbance (650 nm) was recorded on a UV/Vis spectrophotometer (Agilent Model 8453).

[3] = target: T1, MPO; assay: MPO-mediated LDL oxidation (conjugated diene formation, 234 nm); assay type: biochemical; design: purchased Lee Biosolutions (St. Louis, Mo.); settings: for Conjugated diene formation in LDL (in words): MPO/H2O2 (300 μM)/nitrite, more than 2 hours
Experimental: MPO-mediated oxidation of LDL. […] LDL oxidation was monitored at 234 nm at room temperature on a HP UV/VIS spectrometer. Absorbance traces represent the average of duplicate experiments.
MPO-mediated LDL Oxidation. […] Rates of LDL oxidation were monitored at room temperature at 234 nm, the wavelength maximum for conjugated dienes.
MPO-mediated LDL Conjugated Diene Formation: Reaction mixtures contained LDL (0.15 mg/mL), NaNO2 (100 μM), H2O2 (100 μM), MPO (20 nM) and increasing concentrations of KYC or equimolar concentrations of various compounds in a phosphate buffer (100 mM, pH 7.4) containing DTPA (100 μM). Rates of LDL conjugated diene formation were determined by following changes in absorbance at 234 nm, the wavelength maximum for conjugated dienes, on a UV-Vis spectrophotometer (Agilent Model 8453) at room temperature.

[4] = test system: C57BL/6J mice; assay: Pulmonary retention of Q-dot labeled EMPs (acute lung injury); assay type: in vivo, mouse; settings: pretreatment and treatment with KYC
Experimental: KYC Inhibits Acute Lung Injury. Inflammation and sepsis induce the release of endothelial cell microparticles (EMPs). Increased production of EMPs is hypothesized to play a causal role in the mechanisms mediating acute lung injury (ALI). To test this hypothesis, the inventors incubated human umbilical vein endothelial cells with PAI-1, which is well-recognized for inducing endothelial cells to generate EMPs. The EMPs were collected by ultracentrifugation, resuspended in physiological saline solution and then labeled with Q-dots. The Q-dot labeled EMPs were counted and then injected into C57BL/6J mice to achieve a final concentration of 100,000 EMPs/mL of blood. Mice were pretreated with phosphate buffered saline (FIG. 6) or KYC and then were injected with Q-dot labeled EMPs alone or Q-dot labeled EMPs plus KYC (FIG. 6).

IC50 ([2]; MPO 20 nM, H2O2 50 μM, NaCl 150 mM, taurine 5 mM, 30 min, read-out: IC50 for inhibition of MPO-catalyzed HOCl formation): ~7 µM
Conjugated diene formation in LDL (in words) ([3]; 20 μM KYC): totally suppresses
MPO/H2O2/nitrite-mediated LDL oxidation (in words) ([3]; 25 μM, H2O2 100 μM, NaNO2 100 μM): completely suppressed
Conjugated diene formation in LDL (in words) ([3]; 100 μM KYC): totally suppresses
Compound: CC(=O)N[C@@H](CCCCN)C(=O)N[C@@H](Cc1ccc(O)cc1)C(=O)N[C@@H](CS)C(N)=O [KYC, N-acetyl Lysyltyrosylcysteine Amide] (Ac-Lys-Tyr-Cys-NH2)
BAEC morphology after MPO/H2O2 (in words) ([1]; 50 μM KYC): almost the same morphology as cultures that were not exposed to MPO
Protection of BAEC from MPO-induced injury (in words) ([1]; 20 min, increasing KYC): dose-dependently increased protection
Effect on MPO HOCl production at equimolar concentration (in words) ([2]; 12.5 μM): comparable to that of tryptophan; also recorded: significantly more effective
MPO-dependent HOCl production at 25 μM (in words) ([2]; 25 μM peptide): completely inhibited; also recorded: completely ablated
MPO/H2O2-mediated LDL oxidation in the absence of nitrite (in words) ([3]; 25 μM, without NaNO2): inhibited; also recorded: did not increase LDL oxidation
Pulmonary retention of Q-dot labeled EMPs (in words) [4]: dramatically decreases

Reference: patent publication US8937039B2, “Peptide-based peroxidase inhibitors and methods of using same” (The Medical College of Wisconsin, Inc., priority 2009, dated 2015)
